Data as given in patent US20250295649A1, “METHOD FOR PROMOTING ELONGATION OF LONG BONE DURING CHILDHOOD TO ADOLESCENCE BY GPER-1 ACTIVATION VARIANT” (Kaohsiung Medical University, priority 2024, published 2025).

Assays:
epiphyseal chondrocytes = assay: BrdU proliferation in ex vivo cultured epiphyseal cartilage of 4-day-old rats; format: cell-based; settings: for proliferation of epiphyseal chondrocytes (BrdU): ex vivo rat epiphyseal cartilage
Description: After taking out the cultured epiphyseal cartilage from 4-day-old rats and culturing them ex vivo, the cartilage tissues are given GPER-1 agonists at concentrations of 0.1, 0.5, 1, and 2 μM to activate the GPER-1 of chondrocytes. Subsequently, the amount of proliferating cells in living cells is detected using Bromodeoxyuridine (5-bromo-2′-deoxyuridine, BrdU).

mice = assay: Growth plate cartilage structure in mice, Safranin O staining; format: in vivo; settings: subcutaneous injection from 2 weeks old
Description: From 2 weeks old, mice are administered GPER-1 agonists at concentrations of 10^−8 g/kg, 10^−6 g/kg, and 10^−4 g/kg through subcutaneous injection to activate GPER-1. Safranin O staining is employed to label cartilage tissue for the analysis of growth plate cartilage structure. The growth plate cartilage is categorized into the resting zone (RZ), proliferation zone (PZ), and hypertrophy zone (HZ).

In the case of `CC(=O)c1ccc2c(c1)[C@H]1C=CC[C@H]1[C@@H](c1cc3c(cc1Br)OCO3)N2` (racemic) [GPER-1 agonist, (±)-1-[(3aR*,4S*,9bS*)-4-(6-Bromo-1,3-benzodioxol-5-yl)-3a,4,5,9b-tetrahydro-3H-cyclopenta[c]quinolin-8-yl]-ethenone], the “proliferation of rat chondrocytes” value (epiphyseal chondrocytes; concentrations ranging from 0.1 to 1 μM (summary statement)) is reported as “can promote”, the “proliferation of epiphyseal chondrocytes (BrdU)” value (epiphyseal chondrocytes; 0.1 μM) is reported as “significantly promote” and the “proliferation of epiphyseal chondrocytes (BrdU)” value (epiphyseal chondrocytes; 0.5 μM) is reported as “significantly promote”. For the same compound, the “thickness of the proliferative zone of the growth plate” value (mice; 10^−4 g/kg) was “effectively promote”, the “thickness of the whole growth plate” value (mice; 10^−4 g/kg) was “effectively promote” and the “thickness of the proliferative zone of the growth plate” value (mice; 10^−6 g/kg) was “effectively promote”. For the same compound, the “thickness of the whole growth plate” value (mice; 10^−6 g/kg) was “effectively promote”.
